These are literature values, as cited in US8449914B2, “Controlled release carvedilol compositions” (Egalet Ltd., priority 2002, dated 2013).

Data set [1] has as its system beta-adrenoreceptor. As to conditions: humans.
Another data set has as its system alpha1-adrenoreceptor. As to conditions: IR formulation.
Assay in data set [2]: not given
The source holds these as a separate data set.

Data set [3] deals with beta-adrenoreceptor. As to conditions: preclinical studies.

Where two headings read alike, the source gives them in different places.

`COc1ccccc1OCCNCC(O)COc1cccc2[nH]c3ccccc3c12` (racemic) [Carvedilol]: the solubility entry is, setting by setting: (95% ethanol) “sparingly soluble”; (dimethylsulfoxide) “freely soluble”; (ethyl ether) “slightly soluble”; (gastric fluid (simulated, TS, pH1.1)) “practically insoluble”; (intestinal fluid (simulated, TS without pancreatin, pH 7.5)) “practically insoluble”; (isopropanol) “sparingly soluble”. The solubility entry is, setting by setting: (methanol) “soluble”; (methylene chloride) “soluble”; (water) “practically insoluble”. Further, the “time after administration at which beta-blocking actions are evident” value with beta-adrenoreceptor [1] was “one”. In addition, the “time after administration at which alpha-mediated vasodilatory effects are evident” value in the data set with alpha1-adrenoreceptor was at most 30 min. Further, the “steady-state volume of distribution” value in data set [2] (in vivo) is “approximately 115 L”. Moreover, the “absorption in the large intestine, share of the total absorption” value in data set [2] (timed-release capsules, study by Nolte et al) was “approximately 10%”.

Regarding `COc1cc(O)ccc1OCCNCC(O)COc1cccc2[nH]c3ccccc3c12` (centres unmarked) [4′-hydroxyphenyl metabolite, 4′-hydroxy carvedilol], in the data set with beta-adrenoreceptor [3], the “potency for beta-blockade relative to carvedilol” value was “approximately 13 times”.

Consider `COc1ccccc1OCCNC[C@@H](O)COc1cccc2[nH]c3ccccc3c12` [R(+)-carvedilol], for which, in data set [2] (in vivo), the “mean apparent terminal elimination half-lives” value was 5 to 9 h and the “plasma concentrations in poor metabolizers of debrisoquin compared to extensive metabolizers” value is reported as 2-3 fold.

Consider `COc1ccccc1OCCNC[C@H](O)COc1cccc2[nH]c3ccccc3c12` [S(−)-carvedilol], for which the “mean apparent terminal elimination half-lives” value in data set [2] (in vivo) was 7 to 11 h.
